# Assay results reported in article PMC11188305, “Reproductive and fetal toxicity studies of histamine H3 receptor antagonist DL76 used in mice to prevent maximal electroshock-induced seizure” (Frontiers in Pharmacology, 2024).
# Test system: C57/B6 mouse embryos
# Test: Reproductive studies: maternal, fetal and gross/visceral malformation observations after treatment on GD-8 or GD-13
# Format: in vivo
# Details: for Number of female embryos / Number of male embryos: number (percentage); for Exomphalos / Eye open / Kinky tail / Left/right kidney hypo/descended / Mandible hypoplasia / Maxilla hypoplasia / Microtia/low set microtia / Undescended testis: number of embryos (percentage); for Live fetus/litter / Resorption/litter: parentheses contain percentages; for Placental weight, IUGR −2SD: fraction (percentage); for Fetal weight, IUGR −1SD / Fetal weight, IUGR −2SD: fraction of fetuses (percentage)
# Procedure: Reproductive studies were conducted in adult female mice, averaging 30 gm in weight and 6 weeks in age ([Padmanabhan et al., 2006]; [Bastaki et al., 2018]). Following successful mating, indicated by vaginal plug observation, the plug-positive day was considered gestation day 0 (GD-0). DL76 was administered at various doses (7.5 mg/kg, 15 mg/kg, 30 mg/kg, and 60 mg/kg) through single i.p. injections and three 15 mg/kg injections in 1 day to mouse groups on GD-8 and GD-13 (Tables 1, 2). The control group was injected with normal saline. Appropriate formation of different organs occurs in specific periods of the development of the mouse. These two periods were selected because GD-8 is known to be a critical period for the induction of neural tube defects, craniofacial malformations, and the development of other organs, whereas on GD-13, the retina and other parts are being formed, and most other organs have been formed. The number of implantations, fetal deaths, and resorptions was recorded. Fetal and placental weights were documented separately. After blotting dry, the fetuses were weighed and fixed in 95% ethanol. The reproductive toxicological effects of DL76 were assessed by observing gross and visceral malformations, following [Sterz and Lehmann (1985)], [Abdulrazzaq et al. (1997)], [Padmanabhan et al. (2003)], and [Padmanabhan et al. (2006)].
# Deformities of the embryos were identified according to a modified method of [Sterz and Lehmann (1985)], [Abdulrazzaq et al. (1997)], and [Bass et al. (2020)]. Accordingly, the embryos were removed from the 95% ethanol, and the lower part of the abdomen was cut using a razor blade. All organs were checked for abnormalities with a stereo dissecting microscope, and finally, the organs were removed by using forceps.
# Statistical analyses employed SPSS 26.0 (IBM Middle East, Dubai, UAE). Data were presented as means ± SEM. […] Fetal abnormality data were presented as counts and percentages. Fisher’s exact test compared the percentages of abnormalities between the control group (saline) and the different dose groups. All tests were two-tailed, and significance was set at p < 0.05.
compound,measurement,setting,value
"CC(C)(C)c1ccc(OCCCN2CCCCC2)cc1 [DL76, 1-(3-(4-tert-butyl-phenoxy)propyl) piperidine]",Number of female embryos,30 mg/kg i.p. on GD-13,24 (55.8)
same,Number of male embryos,30 mg/kg i.p. on GD-13,19 (44.2)
same,Exomphalos,30 mg/kg i.p. on GD-13,1 (2.3)
same,Eye open,30 mg/kg i.p. on GD-13,0
same,Kinky tail,30 mg/kg i.p. on GD-13,0
same,Left/right kidney hypo/descended,30 mg/kg i.p. on GD-13,1 (2.3)
same,Mandible hypoplasia,30 mg/kg i.p. on GD-13,3 (7.0)
same,Maxilla hypoplasia,30 mg/kg i.p. on GD-13,2 (4.7)
same,Microtia/low set microtia,30 mg/kg i.p. on GD-13,1 (2.3)
same,Undescended testis,30 mg/kg i.p. on GD-13,0
same,Live fetus/litter,30 mg/kg i.p. on GD-13,6.143 (87.76)
same,Resorption/litter,30 mg/kg i.p. on GD-13,.857 (12.24)
same,Fetal weight/Litter (g) (Mean ± SD),60 mg/kg i.p. on GD-8,1.048 ± .0156 g
same,Fetuses/litter,60 mg/kg i.p. on GD-8,7.286 ± 1.380
same,Placental weight/Litter (g) (mean ± SD),60 mg/kg i.p. on GD-8,0.101 ± 0.010 g
same,"Placental weight, IUGR −2SD",60 mg/kg i.p. on GD-8,0
same,"Fetal weight, IUGR −1SD",60 mg/kg i.p. on GD-8,0
same,Number of female embryos,60 mg/kg i.p. on GD-8,21 (45.7)
same,Number of male embryos,60 mg/kg i.p. on GD-8,25 (54.3)
same,Exomphalos,60 mg/kg i.p. on GD-8,0
same,Eye open,60 mg/kg i.p. on GD-8,1 (2.2)
same,Kinky tail,60 mg/kg i.p. on GD-8,0
same,Left/right kidney hypo/descended,60 mg/kg i.p. on GD-8,2 (4.3)
same,Mandible hypoplasia,60 mg/kg i.p. on GD-8,4 (8.7)
same,Maxilla hypoplasia,60 mg/kg i.p. on GD-8,2 (4.3)
same,Microtia/low set microtia,60 mg/kg i.p. on GD-8,2 (4.3)
same,Undescended testis,60 mg/kg i.p. on GD-8,0
same,Live fetus/litter,60 mg/kg i.p. on GD-8,6.571 (90.20)
same,Resorption/litter,60 mg/kg i.p. on GD-8,0.714 (9.80)
same,Fetal weight Litter (g) (Mean ± SD),60 mg/kg i.p. on GD-13,1.051 ± 0.122 g
same,Fetuses/litter,60 mg/kg i.p. on GD-13,7.000 ± 1.414
same,Placental weight/Litter (g) (mean ± SD),60 mg/kg i.p. on GD-13,0.097 ± 0.010 g
same,"Fetal weight, IUGR −1SD",60 mg/kg i.p. on GD-13,0
same,"Fetal weight, IUGR −2SD",60 mg/kg i.p. on GD-13,0
same,Number of female embryos,60 mg/kg i.p. on GD-13,17 (53.1)
same,Number of male embryos,60 mg/kg i.p. on GD-13,15 (46.9)
same,Exomphalos,60 mg/kg i.p. on GD-13,0
same,Eye open,60 mg/kg i.p. on GD-13,2 (6.3)
same,Kinky tail,60 mg/kg i.p. on GD-13,0
same,Left/right kidney hypo/descended,60 mg/kg i.p. on GD-13,2 (6.3)
same,Mandible hypoplasia,60 mg/kg i.p. on GD-13,2 (6.3)
same,Maxilla hypoplasia,60 mg/kg i.p. on GD-13,2 (6.3)
same,Microtia/low set microtia,60 mg/kg i.p. on GD-13,2 (6.3)
same,Undescended testis,60 mg/kg i.p. on GD-13,2 (6.3)
same,Live fetus/litter,60 mg/kg i.p. on GD-13,5.333 (76.19)
same,Resorption/litter,60 mg/kg i.p. on GD-13,1.667 (23.81)
same,Fetal weight/Litter (g) (Mean ± SD),3 × 15-dose i.p. on GD-8,1.037 ± 0.101 g
same,Fetuses/litter,3 × 15-dose i.p. on GD-8,8.143 ± 0.690
same,Placental weight/Litter (g) (mean ± SD),3 × 15-dose i.p. on GD-8,0.092 ± 0.007 g
same,"Placental weight, IUGR −2SD",3 × 15-dose i.p. on GD-8,0
same,"Fetal weight, IUGR −2SD",3 × 15-dose i.p. on GD-8,0
same,Number of female embryos,3 × 15-dose i.p. on GD-8,24 (51.1)
same,Number of male embryos,3 × 15-dose i.p. on GD-8,23 (48.9)
same,Exomphalos,3 × 15-dose i.p. on GD-8,0
same,Eye open,3 × 15-dose i.p. on GD-8,4 (8.5)
same,Kinky tail,3 × 15-dose i.p. on GD-8,0
same,Left/right kidney hypo/descended,3 × 15-dose i.p. on GD-8,2 (4.3)
same,Mandible hypoplasia,3 × 15-dose i.p. on GD-8,3 (6.4)
same,Maxilla hypoplasia,3 × 15-dose i.p. on GD-8,2 (4.3)
same,Microtia/low set microtia,3 × 15-dose i.p. on GD-8,2 (4.3)
same,Undescended testis,3 × 15-dose i.p. on GD-8,1 (2.1)
same,Live fetus/litter,3 × 15-dose i.p. on GD-8,6.714 (82.46)
same,Resorption/litter,3 × 15-dose i.p. on GD-8,1.429 (17.54)
same,Fetal weight Litter (g) (Mean ± SD),3 × 15-dose i.p. on GD-13,1.051 ± 0.031 g
same,Fetuses/litter,3 × 15-dose i.p. on GD-13,8.286 ± 1.704
same,Placental weight/Litter (g) (mean ± SD),3 × 15-dose i.p. on GD-13,0.110 ± 0.012 g
same,"Placental weight, IUGR −2SD",3 × 15-dose i.p. on GD-13,0
same,"Fetal weight, IUGR −1SD",3 × 15-dose i.p. on GD-13,0
same,"Fetal weight, IUGR −2SD",3 × 15-dose i.p. on GD-13,0
same,Number of female embryos,3 × 15-dose i.p. on GD-13,24 (50.0)
same,Number of male embryos,3 × 15-dose i.p. on GD-13,24 (50.0)
same,Exomphalos,3 × 15-dose i.p. on GD-13,1 (2.1)
same,Eye open,3 × 15-dose i.p. on GD-13,6 (12.5)
same,Kinky tail,3 × 15-dose i.p. on GD-13,1 (2.1)
same,Left/right kidney hypo/descended,3 × 15-dose i.p. on GD-13,2 (4.2)
same,Mandible hypoplasia,3 × 15-dose i.p. on GD-13,3 (6.3)
same,Maxilla hypoplasia,3 × 15-dose i.p. on GD-13,3 (6.3)
same,Microtia/low set microtia,3 × 15-dose i.p. on GD-13,3 (6.3)
same,Undescended testis,3 × 15-dose i.p. on GD-13,0
same,Live fetus/litter,3 × 15-dose i.p. on GD-13,6.857 (82.76)
same,Resorption/litter,3 × 15-dose i.p. on GD-13,1.429 (17.24)
same,"mean fetal weight in each litter, treatment groups vs controls","GD-8 and GD-13, all doses",not significantly different
same,"mean placental weights, treated groups vs controls","GD-8 and GD-13, all doses",not significantly different
same,"number of fetuses in each litter, between all study groups","GD-8 and GD-13, all doses",not significantly different
same,"number of live fetuses, between all study groups","GD-8 and GD-13, all doses",not significantly different
same,"resorption rate, between all the groups","GD-8 and GD-13, all doses",not significantly different
same,maternal toxicity,"all groups, GD-8 and GD-13 treated animals",no sign of maternal toxicity
same,"incidence of exencephaly and craniofacial malformations, exomphalos, microtia, open eye, palate, hydronephrosis, descended kidney, undescended testis, kinky tail",between any of the groups studied,no significant difference
same,"average number of implantations and resorptions, control vs DL76-treated groups",early stages of gestation and organogenesis period,No significant alterations
same,maternal body weight vs control mice group,"single 7.5, 15, 30 or 60 mg/kg i.p. or multiple doses 3 × 15 mg/kg i.p. on GD 8 or 13",failed to affect
same,incidence of gross morphological anomalies in treated fetuses vs control group,single- and multiple-dose groups given i.p.,not significantly different
